Numbers after ± are expanded uncertainties.
Details: 101.33 kPa, Liquid; for viscosity: Falling or rolling sphere viscometry; for speed of sound: Sing-around technique in a fixed-path interferometer; for mass density: Vibrating tube method

CC(=O)[O-].C[NH+]1CCCC1=O [N-methyl-2-oxopyrrolidinium acetate]
Details	mass density [kg/m3]	speed of sound [m/s]	viscosity [mPa·s]
293.15 K	1050.71 ± 0.94	1491.5 ± 2.3	2.933 ± 0.037
298.15 K	1046.06 ± 0.93	1473.5 ± 2.3	2.622 ± 0.034
303.15 K	1041.42 ± 0.92	1455.1 ± 2.3	2.364 ± 0.031
308.15 K	1036.77 ± 0.91	1436.9 ± 2.3	2.144 ± 0.028
313.15 K	1032.12 ± 0.9	1418.7 ± 2.3	1.959 ± 0.026
318.15 K	1027.46 ± 0.89	1400.6 ± 2.3	1.799 ± 0.024
323.15 K	1022.79 ± 0.88	1382.6 ± 2.3	1.66 ± 0.023
328.15 K	1018.12 ± 0.87	1364.7 ± 2.3	1.54 ± 0.021
333.15 K	1013.44 ± 0.86	1346.9 ± 2.3	1.435 ± 0.02
338.15 K	1008.75 ± 0.86	1329.2 ± 2.3	1.344 ± 0.019
343.15 K	1004.05 ± 0.85	1311.5 ± 2.3	1.264 ± 0.018

CCCC(=O)[O-].C[NH+]1CCCC1=O [N-methyl-2-oxopyrrolidinium butanoate]
Details	mass density [kg/m3]	speed of sound [m/s]	viscosity [mPa·s]
293.15 K	1010.56 ± 0.86	1435.6 ± 2.3	3.996 ± 0.051
298.15 K	1006.11 ± 0.85	1418 ± 2.3	3.526 ± 0.045
303.15 K	1001.65 ± 0.84	1400.1 ± 2.3	3.136 ± 0.04
308.15 K	997.18 ± 0.83	1382.2 ± 2.3	2.809 ± 0.036
313.15 K	992.71 ± 0.83	1364.4 ± 2.3	2.531 ± 0.033
318.15 K	988.24 ± 0.82	1346.7 ± 2.3	2.295 ± 0.03
323.15 K	983.74 ± 0.82	1328.5 ± 2.3	2.093 ± 0.028
328.15 K	979.25 ± 0.81	1311 ± 2.3	1.918 ± 0.026
333.15 K	974.76 ± 0.81	1293.5 ± 2.3	1.771 ± 0.024
338.15 K	970.26 ± 0.8	1276.3 ± 2.3	1.639 ± 0.022
343.15 K	965.75 ± 0.8	1259.1 ± 2.3	1.527 ± 0.021

C[NH+]1CCCC1=O.O=C[O-] [N-methyl-2-oxopyrrolidinium formate]
Details	mass density [kg/m3]	speed of sound [m/s]	viscosity [mPa·s]
293.15 K	1076.38 ± 1	1496 ± 2.3	2.451 ± 0.032
298.15 K	1071.66 ± 0.99	1478.3 ± 2.3	2.217 ± 0.029
303.15 K	1066.93 ± 0.98	1460.4 ± 2.3	2.02 ± 0.027
308.15 K	1062.2 ± 0.97	1442.5 ± 2.3	1.85 ± 0.025
313.15 K	1057.45 ± 0.96	1424.8 ± 2.3	1.705 ± 0.023
318.15 K	1052.71 ± 0.95	1407.2 ± 2.3	1.58 ± 0.022
323.15 K	1047.96 ± 0.94	1389.7 ± 2.3	1.472 ± 0.021
328.15 K	1043.2 ± 0.93	1372.2 ± 2.3	1.377 ± 0.02
333.15 K	1038.43 ± 0.92	1354.8 ± 2.3	1.295 ± 0.019
338.15 K	1033.66 ± 0.91	1337.6 ± 2.3	1.223 ± 0.018
343.15 K	1028.88 ± 0.9	1320.5 ± 2.3	1.159 ± 0.017

CCCCCC(=O)[O-].C[NH+]1CCCC1=O [N-methyl-2-oxopyrrolidinium hexanoate]
Details	mass density [kg/m3]	speed of sound [m/s]	viscosity [mPa·s]
293.15 K	983.01 ± 0.82	1431.4 ± 2.3	5.211 ± 0.066
298.15 K	978.81 ± 0.81	1414.2 ± 2.3	4.549 ± 0.058
303.15 K	974.6 ± 0.81	1396.7 ± 2.3	3.998 ± 0.051
308.15 K	970.39 ± 0.8	1379.3 ± 2.3	3.543 ± 0.045
313.15 K	966.18 ± 0.8	1362 ± 2.3	3.163 ± 0.04
318.15 K	961.96 ± 0.79	1344.8 ± 2.3	2.843 ± 0.036
323.15 K	957.74 ± 0.79	1327.6 ± 2.3	2.57 ± 0.033
328.15 K	953.51 ± 0.78	1310.6 ± 2.3	2.336 ± 0.03
333.15 K	949.28 ± 0.78	1293.7 ± 2.3	2.135 ± 0.028
338.15 K	945.04 ± 0.77	1276.8 ± 2.3	1.96 ± 0.026
343.15 K	940.79 ± 0.77	1260.2 ± 2.3	1.808 ± 0.024

CCCCC(=O)[O-].C[NH+]1CCCC1=O [N-methyl-2-oxopyrrolidinium pentanoate]
Details	mass density [kg/m3]	speed of sound [m/s]	viscosity [mPa·s]
293.15 K	994.31 ± 0.83	1427.7 ± 2.3	4.448 ± 0.056
298.15 K	990.01 ± 0.83	1410.5 ± 2.3	3.91 ± 0.05
303.15 K	985.7 ± 0.82	1393 ± 2.3	3.465 ± 0.044
308.15 K	981.38 ± 0.82	1375.4 ± 2.3	3.093 ± 0.039
313.15 K	977.06 ± 0.81	1358 ± 2.3	2.779 ± 0.036
318.15 K	972.73 ± 0.81	1340.7 ± 2.3	2.513 ± 0.032
323.15 K	968.39 ± 0.8	1323 ± 2.3	2.284 ± 0.03
328.15 K	964.05 ± 0.8	1305.7 ± 2.3	2.087 ± 0.028
333.15 K	959.71 ± 0.79	1288.7 ± 2.3	1.917 ± 0.026
338.15 K	955.36 ± 0.79	1271.8 ± 2.3	1.769 ± 0.024
343.15 K	951.01 ± 0.78	1255 ± 2.3	1.64 ± 0.022

CCC(=O)[O-].C[NH+]1CCCC1=O [N-methyl-2-oxopyrrolidinium propionate]
Details	mass density [kg/m3]	speed of sound [m/s]	viscosity [mPa·s]
293.15 K	1032.46 ± 0.9	1460.3 ± 2.3	3.136 ± 0.04
298.15 K	1027.86 ± 0.89	1442.6 ± 2.3	2.801 ± 0.036
303.15 K	1023.32 ± 0.89	1424.5 ± 2.3	2.518 ± 0.032
308.15 K	1018.74 ± 0.88	1406.4 ± 2.3	2.28 ± 0.03
313.15 K	1014.16 ± 0.87	1388.4 ± 2.3	2.075 ± 0.027
318.15 K	1009.56 ± 0.86	1370.6 ± 2.3	1.9 ± 0.025
323.15 K	1004.97 ± 0.85	1352.8 ± 2.3	1.75 ± 0.024
328.15 K	1000.36 ± 0.84	1335.1 ± 2.3	1.619 ± 0.022
333.15 K	995.75 ± 0.83	1317.5 ± 2.3	1.506 ± 0.021
338.15 K	991.12 ± 0.83	1300 ± 2.3	1.407 ± 0.02
343.15 K	986.49 ± 0.82	1282.6 ± 2.3	1.32 ± 0.019
